From US20060100280A1, “Cell growth regulator” (Chugai Seiyaku Kabushiki Kaisha, priority 2002, published 2006)

Tests used:
[1] = tested on: human colon cancer cell line SW60; assay: Cell growth test, MTS assay, SW60; type: cell-based; settings: SW60, surviving cell count by MTS on fourth day of culturing
Method: (§1) Accordingly, L-2-phenylglycine is considered to be a competitive inhibitor with strong specificity to ATB^0,+ (Hatanaka et al. 2002, J. Pharm. Pharmacol.). The present inventors prepared 20 mM L-2-phenylglycine solution by dissolving L-2-phenylglycine in a medium containing 0% FBS. IMDM was used as the medium for SW60 and HT29; and RPMI was used for MCF-7. This solution was diluted with the medium to prepare L-2-phenylglycine solutions of 2, 0.2, 0.02, and 0.002 mM.
(§2) Human colon cancer cell lines SW60 and HT29, and breast cancer cell line MCF-7 were prepared with medium to form 4×10^6, 1.6×10^6, and 1.6×10^6 cells/mL, respectively. 25 μL/well of the suspensions thus obtained (1×10^5, […], respectively) were plated onto a 96-well plate, which already contained 25 μL/well of medium comprising 12% FBS. 50 μL of L-2-phenylglycine solution was then added to each well. The cells were cultured in a 5% CO2 incubator, and surviving cell count was quantified by MTS assay on the fourth day of culturing.

[2] = tested on: human colon cancer cell line HT29; assay: Cell growth test, MTS assay, HT29; type: cell-based
Method: as §1, §2

[3] = tested on: breast cancer cell line MCF-7; assay: Cell growth test, MTS assay, MCF-7; type: cell-based, human
Method: as §1, §2

ATB^0,+ = molecular target: T1, ATB^0,+ (Canis lupus familiaris, UniProt A0A8I3P2T9); settings: canine small intestinal brush border membrane; Hatanaka et al. 2002, J. Pharm. Pharmacol.; cited from earlier work
T1 construct: from tissue; host or cells: canine small intestinal brush border membrane (finding quoted from Hatanaka et al. 2002, J. Pharm. Pharmacol.)
T1 sequence (A0A8I3P2T9 1-639): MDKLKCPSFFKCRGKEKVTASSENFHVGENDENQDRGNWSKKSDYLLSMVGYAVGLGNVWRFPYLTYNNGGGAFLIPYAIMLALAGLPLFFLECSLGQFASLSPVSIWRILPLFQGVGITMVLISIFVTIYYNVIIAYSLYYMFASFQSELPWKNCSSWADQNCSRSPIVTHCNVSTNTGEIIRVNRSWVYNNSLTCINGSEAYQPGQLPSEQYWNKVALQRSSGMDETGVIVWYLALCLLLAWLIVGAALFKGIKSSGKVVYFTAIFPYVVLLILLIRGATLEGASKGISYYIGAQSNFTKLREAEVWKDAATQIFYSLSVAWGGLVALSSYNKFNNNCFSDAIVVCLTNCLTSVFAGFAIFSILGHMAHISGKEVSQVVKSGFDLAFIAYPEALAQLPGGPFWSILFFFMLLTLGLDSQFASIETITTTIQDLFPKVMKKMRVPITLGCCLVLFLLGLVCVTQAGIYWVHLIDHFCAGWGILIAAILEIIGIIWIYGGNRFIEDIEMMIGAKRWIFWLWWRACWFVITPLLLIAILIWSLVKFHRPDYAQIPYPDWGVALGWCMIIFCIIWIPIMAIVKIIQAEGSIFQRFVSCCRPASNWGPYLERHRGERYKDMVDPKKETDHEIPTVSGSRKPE

N[C@H](C(=O)O)c1ccccc1 [L-2-phenylglycine]
Cell growth suppression [1]: could not be observed | Cell growth suppression ([2]; HT29, in the presence of 10 μM, reached equilibrium, MTS on fourth day): approximately 10% | Cell growth suppression ([2]; HT29, surviving cell count by MTS on fourth day of culturing): concentration-dependent cell growth suppression was observed | Cell growth suppression ([3]; MCF-7, in the presence of 1 mM, MTS on fourth day): approximately 10% | Cell growth suppression ([3]; MCF-7, surviving cell count by MTS on fourth day of culturing): concentration-dependent cell growth suppression was observed | Affinity compared with L-alanine and L-phenylalanine (ATB^0,+): stronger affinity
